Assay results published in patent US8039438B2, “Synthetic peptides that cause F-actin bundling and block actin depolymerization” (The Regents of the University of California, priority 2003, dated 2011).

Legend:
[1] = biological target: T1, purified rabbit muscle actin (Oryctolagus cuniculus, UniProt P68135); assay: Negative stain electron microscopy of actin polymerized in presence of peptide; format: biochemical; conditions: co-polymerization, molar ratio peptide:actin=2, negative stain electron microscopy
T1 construct: purified rabbit muscle actin in vitro were visualized by negative stain electron microscopy; from tissue; host or cells: rabbit muscle
From the text: The actin bundles caused by co-polymerization of SS12 peptide with purified rabbit muscle actin in vitro were visualized by negative stain electron microscopy (FIG. 5). The bundles still show overall filamenteous structure about 3 times the width of actin filaments polymerized in vitro in the absence of SS12 peptide (FIG. 5A, B). The surface of the bundles is not smooth, but irregular, resembling attempts to branch or attachments of short actin bundles to the sides of the long ones (FIG. 5C). The peptide-bundled actin filaments are much shorter than the control filaments as visualized with rhodamine-phalloidin by fluorescence microscopy (data not shown).
Purified rabbit actin was polymerized in the presence or absence of the SS12 peptide and by absorption applied to a carbon coated copper grid. Negative contrastation was carried out with Pb-citrate and the dried grid was viewed in an Electron microscope at high magnifications (12,000× and 65,000×). […] Higher magnification identified a “modulated” decoration of the otherwise smooth filaments.

rabbit muscle actin = biological target: T2, rabbit muscle actin (Oryctolagus cuniculus, UniProt P68135); assay: In vitro bundling of actin by peptides (co-polymerization, differential centrifugation, SDS gel); format: biochemical
T2 construct: Purified rabbit muscle actin (Cytoskeleton Inc., Denver, Mo.); purchased Cytoskeleton Inc; host or cells: rabbit muscle
Description: The peptides in Table 2 were added to polymerised actin in vitro at different molar ratios. Centrifugation was used to separate fractions containing F-actin, G-actin and bundled actin, which were then run out on […]. Purified rabbit muscle actin (Cytoskeleton Inc., Denver, Mo.) was depolymerized in Low Salt Buffer [LSB; 5 mM Tris-HCl, pH 8.0, 0.2 mM CaCl2, 0.2 mM ATP, 0.5 mM DTT, mM sucrose) for 1 h on ice and denucleated by centrifugation for 1 h at 100,000×g, 4° C. 13 μM monomeric actin was polymerized in vitro by addition of 1/50 vol. […] The samples were centrifuged for 15 min at 10,000×g at room temperature to pellet “bundled filaments”. The resulting supernatant was centrifuged for 1 h at 100,000×g at room temperature to separate F-actin filaments […]. The fractions were boiled in SDS-sample buffer and analyzed on a 10% SDS-Polyacrylamide gel stained with Coomassie.

[2] = system: dextran-labeled electroporated cells; assay: Change in number of dextran-labeled cells after electroporation with peptide; format: cell-based; conditions: for % change in cell number: dextran-labeled cells counted before and after 18 hrs incubation
Description: Electroporated cells were treated with fluorescent dextran plus peptide so those cells receiving the peptide could be identified. Typically a very small number of cells successfully incorporate substance during electroporation, making it difficult to identify those receiving peptide. Typically one sees 10-20% incorporation. But, there is good evidence showing that if a cell incorporates one component in buffer, it will incorporate all components. Thus, dextran can be used to identify those cells receiving peptide. After electroporation of cells with fluorescent dextran and the active peptide SEQ ID NO: 12, the dextran-labeled cells were initially counted and then incubated for 18 hrs. After incubation overnight, the dextran-labeled cells were once again counted. The following Tables 4 and 5 show the average change in dextran-labeled cells after the cells are electroporated and the peptide has invaded the cell body. The cell numbers of the SS12 treated peptide seemed to fluctuate after incubation with various concentrations of the SS12 peptide.

[3] = system: actin comet tails in Xenopus egg extracts; assay: Actin comet-tail formation in cytoplasmic extracts; format: biochemical, Xenopus laevis
Description: In FIGS. 4A and 4B, in vitro polymerized actin forms comet tail from rhodamine-labeled actin added to Xenopus laevis egg cytoplasmic extract. This was set up according to the protocol in Taunton et al., J Cell Biol. 2000 Feb. 7; 148(3):519-30.
Crude Xenopus egg extract was prepared as described except that cytochalasin D was omitted (Murray and Kirschner, Nature. 1989 May 25; 339(6222):275-80). Cytosol and a heavy membrane fraction were prepared by centrifugation of the crude extract (2 h, 300.000 g max; BECKMAN SW-50 rotor). The viscous glycogen pellet beneath the membrane layer was discarded. Cytosol was further clarified by spinning for 15 min at 541,000 g max (BECKMAN TLA 100.3 rotor). Crude membranes (diluted with one volume of 2 M sucrose) and cytosol were snap frozen in separate aliquots for storage at −80° C. unless otherwise indicated. Clarified cytosol contained a small population of vesicles, but motility assays were far more robust (more comet tails over a longer time period) when cytosol was supplemented with the heavy membrane fraction.
For the standard assay, crude membranes in 1 M sucrose (20-μl aliquot, derived from ˜80 μl crude extract) were washed and resuspended in 14 μl buffer A (50 mM NaCl, 5 mM MgCl2, and 50 mM tris [pH 7.5]). To the membrane suspension were added 35 μl cytosol (derived from ˜80 μl crude extract), 0.3 μl rhodamine-labeled actin (prepared according to Kellogg et al., Development. 1988 August; 103(4):675-86), 3 μl PMA (20 μM stock in 10% DMSO), and 20 μl buffer A at 4° C. 20-μl samples were then warmed to room temperature. After 30-40 min, 2-μl aliquots were viewed with a Nikon E800 microscope to yield the photomicrographs of FIG. 4. Images were acquired with a Princeton Instruments cooled CCD camera (standard rhodamine filter set, Princeton Instruments, Trenton, N.J.) and analyzed with WINVIEW (Visitron System, Puchheim, Germany) or METAMORPH software (Princeton Instruments, Trenton, N.J.). Pixels having an intensity over a threshold value (set to a value greater than the background fluorescence in regions devoid of comet tails) were summed over 10 random fields to quantitate relative actin assembly.
Cytosol was supplemented with a crude membrane fraction, rhodamine-actin, 1 μM PMA and peptide SS2 or SS12 (1 μM). After incubating at room temperature for 20 min, samples were viewed by fluorescence. Actin comet tails formed in Xenopus cytoplasmic extracts where no SS2 or SS12 peptides were added as shown by the photographs A, B and E of FIG. 4.

MCF7 cells = assay: Cytokinesis in MCF7 cells imaged after addition of peptide; format: cell-based; conditions: MCF7 cells electroporated with GFP-actin, peptide in DMSO, imaged up to 4 hours
Description: MCF7 cells were electroporated with GFP-actin and imaged (image not shown). After addition of peptide in DMSO, the MCF7 cells were continuously imaged for up to 4 hours. […] The actin filaments within the cells were observed by fluorescence and had the appearance of spikes. Thus it appears that treatment by the active peptide results in inhibition of cytokinesis and blocks cell division.

[4] = system: dextran-labeled electroporated cells; assay: Change in number of dextran-labeled cells after electroporation with peptide; format: cell-based

Sequence: GIVRKWISRFEVWPYL (SS12 active synthetic peptide)
- width of bundles relative to actin filaments polymerized in the absence of peptide [1]: about 3 times the width
- bundling of actin during in vitro polymerization (rabbit muscle actin): most active
- bundled actin upon inducing polymerization (rabbit muscle actin; 1:1 molar ratio peptide:actin, polymerization induced (PI +), FIGS. 6C, 6D): the bulk of the actin is bundled
- bundled actin with peptide alone (rabbit muscle actin; 1:1 molar ratio peptide:actin, polymerization not induced, FIGS. 6C, 6D): half of the actin bundled
- In vitro actin bundling activity (rabbit muscle actin; Tables 2 and 3, peptide co-polymerized with actin in vitro): active
- free F-actin band (rabbit muscle actin; molar ratio 10:1, FIG. 6E): very small bands
- free F-actin band (rabbit muscle actin; molar ratio 100:1, FIG. 6E lane 6): clearly no band of free F-actin
- form of actin (rabbit muscle actin; molar ratio peptide to actin 50, FIG. 6F): all of the actin is in the bundled form
- activity designation of the peptide in the sequence list (active / less active / inactive) (rabbit muscle actin; summary sequence table): SS12 active
- increase in cell population after incubation ([2]; compared with SS1 control peptide-treated cells): did not exhibit the expected increase in cell population
- % change in cell number [2]: −12.5%
- % change in cell number ([2]; peptide concentration 0.2 μM): +13.21%
- % change in cell number ([2]; peptide concentration 1.0 μM): −1.5%
- % change in cell number ([2]; peptide concentration 10.0 μM): −8.6%
- effect on actin comet tails ([3]; FIGS. 4C, 4D, 4F, concentration not given): complete disruption of the comet tails
- actin comet tail formation ([3]; peptide 1 μM, 1 μM PMA, 20 min at room temperature): little or no actin comet tail formation
- cytokinesis and nuclear division (MCF7 cells): cytokinesis but not nuclear division was blocked
- number of cells after 24 hours ([4]; compared to cells treated with the inactive peptide): decrease in the number of cells
- time over which cell division was inhibited ([4]; observation period 36 hours, cells with 24 hr cell cycle): 36 h
